Results published in article PMC10058894, “Bioactive C21 Steroidal Glycosides from Euphorbia kansui Promoted HepG2 Cell Apoptosis via the Degradation of ATP1A1 and Inhibited Macrophage Polarization under Co-Cultivation” (Molecules, 2023).

What was measured:
[1] = system: NO production of LPS-stimulated RAW264.7 cells; assay: Nitric oxide production in LPS-stimulated RAW264.7 cells (Griess); assay type: cell-based
Protocol: RAW264.7 cells (8 × 10^4 cells/well) were incubated in 96T wells with DMEM for 24 h and then treated with compounds and LPS (1 μg/mL) for 24 h; this included the control group and LPS group. Then, the cell supernatant was collected for nitric oxide production assay. Next, 100 uL/well PBS was added to 96T wells, then 0.5% MTT (Sigma, Saint Louis, MO, USA) was added to 20 μL/well for 3.5 h. DMSO (150 μL/well) was added to dissolve the purple formazan. Cells were agitated for 15 min at room temperature, and the absorbance at 490 nm was recorded by SpetraMax M2 (Molecular Devices, San Jose, CA, USA). The NO inhibition rate (%) = (ODLPS group − ODcompound group)/(ODLPS group-ODcontrol group) × 100%. The IC50 value refers to the inhibitory of nitric oxide production of LPS-stimulated RAW264.7 cells. Then, 70 uL of each cell supernatant sample was added into a new 96T plate, and Griess A and Griess B were added separately. Then, the absorbance value at 540 nm was detected and then brought into the standard curve to assay the concentration of NO. The cell survival rate (%) = (ODcompound group − ODblank group)/(ODcontrol group − ODblank group) × 100%. The half concentration of the cell death (CC50) value refers to the concentration of compound 5 when 50% of RAW264.7 cells die. The iNOS inhibitor ([…], L-NMMA) was selected as the positive control. The levels of cytokines (IL-1β, IFN-γ, IL-10, TNF-α, and IL-6) in the cell supernatant were determined using an ELISA kit (Novus Biologicals, Shanghai, China, Lot: 834472, 770118, 772051, 486956, 602865). When the process was conducted according to the manufacturer’s instructions, the absorbance was read at 450 nm/570 nm in a SpectraMax 340PC microplate spectrophotometer (Molecular Devices, San Jose, CA, USA).

[2] = system: HepG2 cells; assay: Fluorescence staining for apoptosis (Hoechst 33342, Annexin V/PI); assay type: cell-based
Protocol: (§1) HepG2 cells (4 × 10^5 cells/well) were incubated in confocal dishes with DMEM for 24 h and then treated with compounds for 48 h. Then, the cells were treated with 0.1% Triton X-100 for 10 min and washed with PBS five times. Finally, the cells were dyed with anti-ATP1A1 at 4 °C overnight. Nuclear staining with DAPI (1 μg∙mL^−1) was added for 7 min in the dark, and the cells were washed. The stained images were captured under a laser scanning confocal microscope (Nikon A1 AIR MP+, Tokyo, Japan). HepG2 cells (5 × 10^5 cells/well) were incubated in 6-well plates in complete DMEM. Cells were treated with compounds for 24 h. Then, the cells were stained with Annexin V/PI for 30 min at 4 °C in the dark, and apoptosis analysis was carried out by laser scanning confocal microscopy.

[3] = target: T1, Na+-K+-ATPase (Homo sapiens, UniProt P05023); assay: Na+-K+-ATPase enzyme activity detection kit; assay type: biochemical; conditions: HepG2 cells
T1 construct: endogenous in cells; host or cells: HepG2 (sonicated lysate supernatant)
Protocol: HepG2 cells were collected in centrifuge tubes, and every 5 million cells were added to 1 mL reagent to sonicate the cells (power 20%, ultrasound 3S, interval 10 s, repeat 30 times). Then, the samples were centrifuged at 8000 rpm/min for 10 min at 4 °C. The supernatant was then collected and placed on ice for testing. The operation was performed according to the instructions of the Na^+-K^+-ATPase enzyme activity detection kit (Solarbio, Beijing, China).

[4] = CETSA binding assay; conditions: 50 μmoL−1, western blot
Protocol: Figure 4 Compound 5 promoted the endocytosis and degradation of ATP1A1. (A) HepG2 cells were treated with 12.5 μmol∙L^−1 or 25 μmol∙L^−1 5 for 48 h, and the lysosomal co-localization assay was performed with a confocal laser. (B) Cells exposed to 25 μmol∙L^−1 5 for 12 h or 24 h were detected by fluorescence staining. (C) 5 is depicted in red, and the chains of Na^+, K^+-ATPase α/β/γ are represented by light blue, cyan-blue, and magenta, respectively. The crystallography, atomic coordinates, and structure factors have been deposited in the Protein Data Bank, www.pdb.org (accessed on 1 February 2023) (PDB ID code 3KDP). (D) The CETSA binding assay of ATP1A1 and β-actin in the presence or absence of 5 (50 μmoL^−1) at different temperatures was detected by western blot. The temperature-dependent melting curves and the apparent aggregation temperature were calculated by nonlinear regression. Values represent the mean ± SEM (N = 3 replicates).

[5] = system: ATP1A1-related AKT and ERK signaling pathways; assay: Western blot of AKT and ERK phosphorylation in HepG2 cells; assay type: cell-based; conditions: 5 at 25 μmol∙L−1, 0~60 min, digitonin 10 nmol∙L−1
Protocol: An Na^+/K^+-ATPase inhibitor (digitonin), AKT inhibitor (MK 2206), and ERK inhibitor (FR 180204) were purchased from Biotech (Beijing, China). These agents were stored at −20 °C, and the cells were preincubated with the inhibitor for 4 h prior to treatment with the compounds. Digitonin, MK 2206, and FR 180204 were used at concentrations of 10, 40, and 200 nmol/L, respectively.
(§2) Protein samples were prepared using a RIPA lysis buffer. The concentration of the protein was analyzed using a nucleic acid and protein microanalyzer (Molecular Devices, San Jose, CA, USA). SDS–PAGE was performed to separate the proteins, which were then electrotransferred onto a PVDF membrane. The membrane was incubated with antibodies at 4 °C overnight. Next, the membrane was washed and incubated with an HRP-conjugated secondary antibody (Beyotime, BeiJing, China). Finally, signals were detected by the ECL method (Beyotime, BeiJing, China) and analyzed using ImageJ software.

[6] = system: HepG2 and RAW264.7 co-cultivation; assay: Cytokine levels by ELISA in co-cultivation; assay type: cell-based; conditions: 25 μmol∙L−1, 48 h
[7] = target: ATP1A1 (Homo sapiens, UniProt P05023); assay: ATP1A1 level and location in HepG2 cells (western blot, fluorescence staining, lysosomal colocalization); assay type: cell-based; design: we focused on the regulatory effect of 5 on ATP1A1 in HepG2 cells; endogenous in cells; host or cells: HepG2
Protocol: as §1, §2

SMILES: C[C@H](O)[C@]1(O)CC[C@@]2(O)[C@]1(C)[C@H](OC(=O)/C=C/c1ccccc1)C[C@@H]1[C@@]3(C)CC[C@H](O[C@H]4C[C@H](O)[C@H](O)[C@@H](C)O4)CC3=CC[C@]12O [Compound 5, Cynsaccatol L]
- inhibitory activity on NO production relative to the positive control drug (L-NMMA) ([1]; LPS-stimulated RAW264.7 cells): 1000 times
- IC50 ([1]; Mus musculus, LPS (1 μg/mL)-stimulated RAW264.7 cells, 24 h, read-out: RAW264.7 IC50 (inhibition of nitric oxide production)): 20 ± 20 nM
- nuclear changes (Hoechst 33342 staining) [2]: significantly induce nuclear changes
- nuclear and cell membrane morphological changes (Annexin V/PI staining) ([2]; as low as 12.5 μmol∙L−1): significantly induce nuclear and cell membrane morphological changes
- activity of NAK (Na+-K+-ATPase) [3]: inhibited
- denaturation temperature of β-actin (CETSA) [4]: did not change
- phosphorylation of AKT and ERK and expression of ATP1A1 [5]: all decreased
- levels of TNF-α and IFN-γ ([6]; vs C0, C1 and C2 groups): significantly upregulate
- levels of IL-6 and IL-10 ([6]; vs C0 group): decreased significantly
- endocytosis of ATP1A1 protein (lysosomal colocalization assay) ([7]; HepG2, 12.5 or 25 μmol∙L−1 for 48 h, 25 μmol∙L−1 for 12 h or 24 h): induce the endocytosis of the ATP1A1 protein
- expression of ATP1A1 (comparison with inhibitors) ([7]; HepG2, 5 25 μmol∙L−1, digitonin 10, MK 2206 40, FR 180204 200 nmol∙L−1, western blot): decreased
- green fluorescence intensity of ATP1A1 on the cell membrane ([7]; HepG2 cells, fluorescence staining): significantly reduced in a dose-dependent manner
- level of ATP1A1 ([7]; HepG2 cells, western blot): significantly reduced
